# Laboratory results as given in US12077503B2, “Substituted cyclic amides and their use as herbicides” (FMC CORPORATION, priority 2015, dated 2024).
# Columns and labels:
# Type in all cases: in vivo
# Kochia (Kochia scoparia) [1] = test: Test A preemergence; details: Bassia scoparia, pre-emergence, 240 h, 0 to 100 scale where 0 is no effect and 100 is complete control, read-out: Kochia plant response rating
# Procedure, shortened: (§1)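 Seeded soil received test chemicals as a preemergence directed spray, and seedlings at one to two leaves, 2–10 cm tall, received them postemergence, in a non-phytotoxic, surfactant-containing solvent mixture. Pots were held in a greenhouse for approximately 10 d, then rated for injury from 0, no effect, to 100, complete control.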
# [2] = tested on: barnyardgrass (Echinochloa crus-galli); test: Test A preemergence; details: Echinochloa crus-galli, pre-emergence, 240 h, 0 to 100 scale where 0 is no effect and 100 is complete control, read-out: Barnyardgrass plant response rating
# Procedure, shortened: as §1
# [3] = tested on: giant foxtail (Setaria faberii); test: Test A preemergence; details: Setaria faberi, pre-emergence, 240 h, 0 to 100 scale where 0 is no effect and 100 is complete control, read-out: Foxtail, Giant plant response rating
# Procedure, shortened: as §1
# [4] = tested on: pigweed (Amaranthus retroflexus); test: Test A preemergence; details: Amaranthus retroflexus, pre-emergence, 240 h, 0 to 100 scale where 0 is no effect and 100 is complete control, read-out: Pigweed plant response rating
# [5] = tested on: ragweed (common ragweed, Ambrosia elatior); test: Test A preemergence; details: Ambrosia artemisiifolia, pre-emergence, 240 h, 0 to 100 scale where 0 is no effect and 100 is complete control, read-out: Ragweed plant response rating
# Procedure, shortened: as §1
# [6] = tested on: ryegrass, Italian (Italian ryegrass, Lolium multiflorum); test: Test A preemergence; details: Lolium multiflorum, pre-emergence, 240 h, 0 to 100 scale where 0 is no effect and 100 is complete control, read-out: Ryegrass, Italian plant response rating
# Procedure, shortened: as §1
# [7] = tested on: Galium (catchweed bedstraw, Galium aparine); test: Test A postemergence; details: Galium, post-emergence, 240 h
# Procedure, shortened: as §1
# Kochia (Kochia scoparia) [8] = test: Test A postemergence; details: Bassia scoparia, post-emergence, 240 h
# Procedure, shortened: as §1
# [9] = tested on: barnyardgrass (Echinochloa crus-galli); test: Test A postemergence; details: Echinochloa crus-galli, post-emergence, 240 h
# Procedure, shortened: as §1
# [10] = tested on: blackgrass (Alopecurus myosuroides); test: Test A postemergence; details: Alopecurus myosuroides, post-emergence, 240 h
# Procedure, shortened: as §1
# corn (Zea mays) = test: Test A postemergence; details: Zea mays, post-emergence, 240 h
# Procedure, shortened: as §1
# [11] = tested on: giant foxtail (Setaria faberii); test: Test A postemergence; details: Setaria faberi, post-emergence, 240 h
# Procedure, shortened: as §1
# [12] = tested on: pigweed (Amaranthus retroflexus); test: Test A postemergence; details: Amaranthus retroflexus, post-emergence, 240 h
# Procedure, shortened: as §1
# [13] = tested on: ragweed (common ragweed, Ambrosia elatior); test: Test A postemergence; details: Ambrosia artemisiifolia, post-emergence, 240 h
# Procedure, shortened: as §1
# [14] = tested on: ryegrass, Italian (Italian ryegrass, Lolium multiflorum); test: Test A postemergence; details: Lolium multiflorum, post-emergence, 240 h
# Procedure, shortened: as §1
# [15] = tested on: wheat (Triticum aestivum); test: Test A postemergence; details: Triticum aestivum, post-emergence, 240 h
# Procedure, shortened: as §1
# [16] = tested on: barnyardgrass (Echinochloa crus-galli); test: Test B flooded paddy test; details: Echinochloa crus-galli, 250 g ai/ha, Flood; 0 to 100 scale where 0 is no effect and 100 is complete control; read-out: Barnyardgrass plant response rating
# Procedure, shortened: (§2)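 Evaluation by eye, against controls, occurred 13–15 d post-treatment in a greenhouse, using a 0 (no effect) to 100 (complete control) scale. Application was into the paddy water, 3 cm deep over the soil, on 2-leaf plants.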
# [17] = tested on: ducksalad (Heteranthera limosa); test: Test B flooded paddy test; details: Heteranthera limosa, 250 g ai/ha, Flood; 0 to 100 scale where 0 is no effect and 100 is complete control; read-out: Ducksalad plant response rating
# Procedure, shortened: as §2
# rice (Oryra sativa) = test: Test B flooded paddy test; details: Oryza sativa, 250 g ai/ha, Flood; 0 to 100 scale where 0 is no effect and 100 is complete control; read-out: Rice plant response rating
# Procedure, shortened: as §2
# [18] = tested on: sedge, umbrella (small-flower umbrella sedge, Cyperus difformis); test: Test B flooded paddy test; details: Cyperus difformis, 250 g ai/ha, Flood; 0 to 100 scale where 0 is no effect and 100 is complete control; read-out: Sedge, Umbrella plant response rating
# Procedure, shortened: as §2
# [19] = 125 g ai/ha, preemergence, approx. 10 d
smiles,measurement,setting,value
O=C1NC[C@H](c2ccc(C(F)(F)F)cn2)[C@H]1C(=O)Nc1ccc(F)c(F)c1F [Compound 1105],pest or weed control at 31 g/ha,"Kochia (Kochia scoparia) [1]; 31 g ai/ha, Preemergence",0%
same,pest or weed control at 125 g/ha,Kochia (Kochia scoparia) [1]; [19],70%
same,pest or weed control at 31 g/ha,"[2]; 31 g ai/ha, Preemergence",30%
same,pest or weed control at 125 g/ha,[2]; [19],60%
same,pest or weed control at 31 g/ha,"[3]; 31 g ai/ha, Preemergence",20%
same,pest or weed control at 125 g/ha,[3]; [19],90%
same,pest or weed control at 31 g/ha,"[4]; 31 g ai/ha, Preemergence",0%
same,pest or weed control at 125 g/ha,[4]; [19],0%
same,pest or weed control at 31 g/ha,"[5]; 31 g ai/ha, Preemergence",0%
same,pest or weed control at 125 g/ha,[5]; [19],20%
same,pest or weed control at 31 g/ha,"[6]; 31 g ai/ha, Preemergence",0%
same,pest or weed control at 125 g/ha,[6]; [19],0%
same,pest or weed control at 125 g/ha,"[7]; 125 g ai/ha, postemergence, visual injury on 0 to 100 scale (0 no effect, 100 complete control), approx. 10 d, read-out: Galium plant response rating",40%
same,pest or weed control at 31 g/ha,"[7]; Postemergence, 31 g ai/ha, visual injury after approx. 10 d, 0 to 100 scale, 0 no effect, 100 complete control, read-out: Plant response rating, Galium",30%
same,pest or weed control at 125 g/ha,"Kochia (Kochia scoparia) [8]; 125 g ai/ha, postemergence, visual injury on 0 to 100 scale (0 no effect, 100 complete control), approx. 10 d, read-out: Kochia plant response rating",20%
same,pest or weed control at 31 g/ha,"Kochia (Kochia scoparia) [8]; Postemergence, 31 g ai/ha, visual injury after approx. 10 d, 0 to 100 scale, 0 no effect, 100 complete control, read-out: Plant response rating, Kochia",0%
same,pest or weed control at 125 g/ha,"[9]; 125 g ai/ha, postemergence, visual injury on 0 to 100 scale (0 no effect, 100 complete control), approx. 10 d, read-out: Barnyardgrass plant response rating",30%
same,pest or weed control at 31 g/ha,"[9]; Postemergence, 31 g ai/ha, visual injury after approx. 10 d, 0 to 100 scale, 0 no effect, 100 complete control, read-out: Plant response rating, Barnyardgrass",0%
same,pest or weed control at 125 g/ha,"[10]; 125 g ai/ha, postemergence, visual injury on 0 to 100 scale (0 no effect, 100 complete control), approx. 10 d, read-out: Blackgrass plant response rating",0%
same,pest or weed control at 31 g/ha,"[10]; Postemergence, 31 g ai/ha, visual injury after approx. 10 d, 0 to 100 scale, 0 no effect, 100 complete control, read-out: Plant response rating, Blackgrass",0%
same,plant injury at 125 g/ha,"corn (Zea mays); 125 g ai/ha, postemergence, visual injury on 0 to 100 scale (0 no effect, 100 complete control), approx. 10 d, read-out: Corn plant response rating",0%
same,"Corn plant response rating (crop injury, 0 = no effect, 100 = complete kill) at 31 g/ha","corn (Zea mays); Postemergence, 31 g ai/ha, visual injury after approx. 10 d, 0 to 100 scale, 0 no effect, 100 complete control",0%
same,pest or weed control at 125 g/ha,"[11]; 125 g ai/ha, postemergence, visual injury on 0 to 100 scale (0 no effect, 100 complete control), approx. 10 d, read-out: Foxtail, Giant plant response rating",50%
same,pest or weed control at 31 g/ha,"[11]; Postemergence, 31 g ai/ha, visual injury after approx. 10 d, 0 to 100 scale, 0 no effect, 100 complete control, read-out: Plant response rating, Foxtail, Giant",0%
same,pest or weed control at 125 g/ha,"[12]; 125 g ai/ha, postemergence, visual injury on 0 to 100 scale (0 no effect, 100 complete control), approx. 10 d, read-out: Pigweed plant response rating",0%
same,pest or weed control at 31 g/ha,"[12]; Postemergence, 31 g ai/ha, visual injury after approx. 10 d, 0 to 100 scale, 0 no effect, 100 complete control, read-out: Plant response rating, Pigweed",0%
same,pest or weed control at 125 g/ha,"[13]; 125 g ai/ha, postemergence, visual injury on 0 to 100 scale (0 no effect, 100 complete control), approx. 10 d, read-out: Ragweed plant response rating",0%
same,pest or weed control at 31 g/ha,"[13]; Postemergence, 31 g ai/ha, visual injury after approx. 10 d, 0 to 100 scale, 0 no effect, 100 complete control, read-out: Plant response rating, Ragweed",0%
same,pest or weed control at 125 g/ha,"[14]; 125 g ai/ha, postemergence, visual injury on 0 to 100 scale (0 no effect, 100 complete control), approx. 10 d, read-out: Ryegrass, Italian plant response rating",0%
same,pest or weed control at 31 g/ha,"[14]; Postemergence, 31 g ai/ha, visual injury after approx. 10 d, 0 to 100 scale, 0 no effect, 100 complete control, read-out: Plant response rating, Ryegrass, Italian",0%
same,plant injury at 125 g/ha,"[15]; 125 g ai/ha, postemergence, visual injury on 0 to 100 scale (0 no effect, 100 complete control), approx. 10 d, read-out: Wheat plant response rating",0%
same,plant injury at 31 g/ha,"[15]; Postemergence, 31 g ai/ha, visual injury after approx. 10 d, 0 to 100 scale, 0 no effect, 100 complete control, read-out: Plant response rating, Wheat",0%
same,pest or weed control at 250 g/ha,[16],50%
same,pest or weed control at 250 g/ha,[17],100%
same,pest or weed control at 250 g/ha,rice (Oryra sativa),20%
same,pest or weed control at 250 g/ha,[18],0%
